Earlier results in patent US20090117199A1, “Method of treatment of cancer” (priority 1998, published 2009).
Where two headings read alike, the source gives them in different places.

What was measured:
melanoma [1] = settings: cited from earlier work
melanoma [2] = settings: single-agent chemotherapy; cited from earlier work
[3] = IL cisplatin or IL cisplatin with electroporation, lower end of reported results
[4] = IL cisplatin or IL cisplatin with electroporation, upper end of reported results

For `N.N.[Cl][Pt][Cl]` [cisplatin], the CR (melanoma [1]; [3]) is given as 19%, the ORR (melanoma [1]; [3]) is given as 38% and the PR (melanoma [1]; [3]) is given as 19%. For the same molecule, the CR (melanoma [1]; [4]) was 47%, the ORR (melanoma [1]; [4]) was 53% and the PR (melanoma [1]; [4]) was 7%. The ORR (melanoma [1]; lesions having a median diameter of 3.0 cm) was 44% and the ORR (melanoma [1]; lesions with a median diameter of 0.6 cm) was 53%.

In the case of bleomycin, the efficacy (melanoma [1]; single electrochemotherapy treatment, IL, response reduced in larger tumors) is listed as “Substantial efficacy”.

For `CN(C)/N=N/c1[nH]cnc1C(N)=O` [dacarbazine], the “cases in which treatment is successful” value (melanoma [2]) is given as 10-15%.

B1: IFNγ: IL interferon (protein, UniProt P01579 24-161, looked up)
Interferon gamma: QDPYVKEAENLKKYFNAGHSDVADNGTLFLGILKNWKEESDRKIMQSQIVSFYFKLFKNFKDDQSIQKSVETIKEDMNVKFFNSNKKKRDDFEKLTNYSVTDLNVQRKAIHELIQVMAELSPAAKTGKRKRSQMLFRG
For B1, the response (melanoma [1]; IL therapy, prior reports) is given as “no result of transient response” and the “toxicity and side effects” value (melanoma [1]; in vivo) is given as “significant toxicity and side effects”.
